10 compounds from patent publication US11708326B2, “Immunomodulator compounds” (CHEMOCENTRYX, INC., priority 2017, dated 2023) can be followed below.

Structures are written as SMILES.

The target in the assay is human PD-L1 / Human PD-1 (Homo sapiens (Human), UniProt Q9NZQ7). The experiment in a line: Enzyme-Linked Immunosorbent Assay (ELISA), human PD-1 binding to plate-coated human PD-L1. The settings on record: PD-1/PD-L1 ELISA, absorbance at 450 nm. Here is the method: Biological Example: Enzyme-Linked Immunosorbent Assay—ELISA
human PD-L1 / Human PD-1, sequence (Q9NZQ7 19-239): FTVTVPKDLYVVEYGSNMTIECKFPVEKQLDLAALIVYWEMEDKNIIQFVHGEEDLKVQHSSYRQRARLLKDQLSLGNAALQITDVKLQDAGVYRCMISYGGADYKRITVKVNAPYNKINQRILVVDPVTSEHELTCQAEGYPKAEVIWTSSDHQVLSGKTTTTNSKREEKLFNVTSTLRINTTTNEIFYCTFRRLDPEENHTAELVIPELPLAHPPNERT
96 Well plates were coated with 1 μg/mL of human PD-L1 (obtained from R&D) in PBS overnight at 4° C. The wells were then blocked with 2% BSA in PBS (W/V) with 0.05% TWEEN-20 for 1 hour at 37° C. The plates were washed 3 times with PBS/0.05% TWEEN-20 and the compounds were serial diluted (1:5) in dilution medium and added to the ELISA plates. Human PD-1 and biotin 0.3 μg/mL (ACRO Biosystems) were added and incubated for 1 hour at 37° C. then washed 3 times with PBS/0.05% TWEEN-20. A second block was performed with 2% BSA in PBS (W/V)/0.05% TWEEN-20 for 10 min at 37° C. and was washed 3 times with PBS/0.05% TWEEN-20. Streptavidin-HRP was added for 1 hour at 37° C. then washed 3 times with PBS/0.05% TWEEN-20. TMB substrate was added and reacted for 20 min at 37° C. A stop solution (2 N aqueous H2SO4) was added. The absorbance was read at 450 nm using a micro-plate spectrophotometer.
One may read the IC50 as the concentration that inhibits the measured activity by half. A high value points to lower potency. `Cc1c(OCCCN2CCC(O)CC2)cccc1-c1cccc2c1CC[C@@H]2Oc1cc(OCc2cncc(C#N)c2)c(CN[C@@](C)(CO)C(=O)O)cc1Cl`: the IC50 was at most 5 nM.
The same measure for `Cc1c(OCCCN2CCC(O)CC2)cccc1-c1cccc2c1CC[C@@H]2Oc1cc(OCCCN2CC[C@@H](O)C2)c(CN[C@@H]2CCCC[C@@H]2O)cc1Cl`: at most 5 nM.
The same measure for `C[C@@](CO)(NCc1cc(Cl)c(OC2CCc3c(-c4cccc(OCCCN5CC(O)C5)c4Cl)cc(F)cc32)cc1OCc1cncc(C#N)c1)C(=O)O` (stereo partly shown): at most 5 nM; for `COc1cc(OC2CCc3c(-c4cccc(OCCCN5CC(O)C5)c4Cl)cccc32)cc(OC)c1CN[C@@](C)(CO)C(=O)O` (stereo partly shown): 5 to 500 nM.
`N#Cc1cncc(COc2cc(O[C@H]3CCc4c(-c5cccc(OCCCN6CCC(F)CC6)c5Cl)cccc43)c(Cl)cc2CN[C@@H]2CCCC[C@H]2F)c1`: the IC50 lay in the range of 5 to 500 nM.
The compound `N#Cc1cncc(COc2cc(O[C@H]3CCc4c(-c5cccc(OCCCn6ccnc6)c5Cl)cccc43)c(Cl)cc2CN[C@@H]2CCCC[C@@H]2O)c1` returned an IC50 of 5 to 500 nM.
With `Cc1c(OCCCN2CCC(F)CC2)cccc1-c1cc(F)cc2c1CCC2Oc1cc(OCc2cc(C#N)cc(C#N)c2)c(CN[C@H]2CCC(=O)NC2)cc1Cl` (stereo partly shown) the figure was 5 to 500 nM; with `CCOc1cc(NC2CCc3c(-c4cccc(OCCCN5CCC(C)(F)CC5)c4C)cccc32)c(Cl)cc1CNC[C@@H]1CCC(=O)N1` (stereo partly shown), 5 to 500 nM.
With `CCOc1cc(O[C@@H]2c3cccc(-c4cccc(OCCCN5CCC(C)(F)CC5)c4C)c3C[C@@H]2F)c(Cl)cc1CNC(C(=O)NS(C)(=O)=O)[C@@H](C)O` (stereo partly shown) the figure was 5 to 500 nM.
With `CCOc1cc(NC2CCc3c(-c4cccc(OCCCN5CCCC5(C)C)c4C)cccc32)c(Cl)cc1CNC[C@@H]1CCC(=O)N1` (stereo partly shown) the figure was 5 to 500 nM.
